Drawing on ChEMBL document CHEMBL5291721, “A preclinical secondary pharmacology resource illuminates target-adverse drug reaction associations of marketed drugs” (Nat Commun, 2023), this text covers AC50 for 16 molecules.

Assay [1] deals with T1, Progesterone receptor (Homo sapiens, UniProt P06401).
T1 sequence (P06401 whole entry): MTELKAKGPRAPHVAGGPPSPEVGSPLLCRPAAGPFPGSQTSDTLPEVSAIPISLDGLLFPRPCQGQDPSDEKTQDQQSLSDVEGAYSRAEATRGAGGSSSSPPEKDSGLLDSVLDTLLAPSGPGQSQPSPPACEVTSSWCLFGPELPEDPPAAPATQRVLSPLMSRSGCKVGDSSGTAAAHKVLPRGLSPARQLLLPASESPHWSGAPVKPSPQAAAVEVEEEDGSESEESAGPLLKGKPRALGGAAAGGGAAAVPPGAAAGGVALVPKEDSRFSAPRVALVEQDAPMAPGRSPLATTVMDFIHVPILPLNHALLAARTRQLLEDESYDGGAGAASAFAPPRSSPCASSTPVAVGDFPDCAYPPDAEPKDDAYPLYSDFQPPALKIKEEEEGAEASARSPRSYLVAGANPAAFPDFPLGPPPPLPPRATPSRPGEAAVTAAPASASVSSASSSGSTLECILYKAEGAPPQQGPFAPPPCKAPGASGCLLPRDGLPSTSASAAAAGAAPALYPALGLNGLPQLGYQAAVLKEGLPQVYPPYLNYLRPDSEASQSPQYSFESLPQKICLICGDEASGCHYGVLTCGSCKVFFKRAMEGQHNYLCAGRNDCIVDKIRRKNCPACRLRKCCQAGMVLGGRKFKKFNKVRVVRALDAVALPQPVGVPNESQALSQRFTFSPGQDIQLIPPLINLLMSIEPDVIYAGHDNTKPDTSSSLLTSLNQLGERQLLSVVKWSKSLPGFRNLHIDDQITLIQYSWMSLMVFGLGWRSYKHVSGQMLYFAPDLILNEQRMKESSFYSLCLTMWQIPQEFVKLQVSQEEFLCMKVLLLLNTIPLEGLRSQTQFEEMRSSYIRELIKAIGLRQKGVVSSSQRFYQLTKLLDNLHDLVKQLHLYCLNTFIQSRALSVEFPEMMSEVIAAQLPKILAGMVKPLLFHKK
The assay is classed as functional.

Assay [2] deals with T1, Progesterone receptor. The class given is functional. This is another data set of the same source.
For assay [3], the target named is T2, 5-hydroxytryptamine receptor 3A (Homo sapiens, UniProt P46098).
T2 sequence (P46098 whole entry): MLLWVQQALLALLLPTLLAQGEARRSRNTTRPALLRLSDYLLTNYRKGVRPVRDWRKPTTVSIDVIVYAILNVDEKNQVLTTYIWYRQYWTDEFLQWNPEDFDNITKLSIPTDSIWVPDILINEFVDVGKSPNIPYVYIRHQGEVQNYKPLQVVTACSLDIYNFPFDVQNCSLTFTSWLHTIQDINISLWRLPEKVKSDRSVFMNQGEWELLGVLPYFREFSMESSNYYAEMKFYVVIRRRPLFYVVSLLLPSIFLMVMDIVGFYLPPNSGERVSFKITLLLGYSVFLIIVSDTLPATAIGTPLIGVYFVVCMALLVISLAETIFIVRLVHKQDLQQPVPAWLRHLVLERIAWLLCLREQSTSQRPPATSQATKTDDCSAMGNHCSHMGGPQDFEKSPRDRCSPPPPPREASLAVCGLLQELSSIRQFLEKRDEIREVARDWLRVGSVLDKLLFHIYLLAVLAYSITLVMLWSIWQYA
The class given is functional.

Assay [4] concerns the target T3, Alpha-2A adrenergic receptor (Homo sapiens, UniProt P08913).
T3 sequence (P08913 whole entry): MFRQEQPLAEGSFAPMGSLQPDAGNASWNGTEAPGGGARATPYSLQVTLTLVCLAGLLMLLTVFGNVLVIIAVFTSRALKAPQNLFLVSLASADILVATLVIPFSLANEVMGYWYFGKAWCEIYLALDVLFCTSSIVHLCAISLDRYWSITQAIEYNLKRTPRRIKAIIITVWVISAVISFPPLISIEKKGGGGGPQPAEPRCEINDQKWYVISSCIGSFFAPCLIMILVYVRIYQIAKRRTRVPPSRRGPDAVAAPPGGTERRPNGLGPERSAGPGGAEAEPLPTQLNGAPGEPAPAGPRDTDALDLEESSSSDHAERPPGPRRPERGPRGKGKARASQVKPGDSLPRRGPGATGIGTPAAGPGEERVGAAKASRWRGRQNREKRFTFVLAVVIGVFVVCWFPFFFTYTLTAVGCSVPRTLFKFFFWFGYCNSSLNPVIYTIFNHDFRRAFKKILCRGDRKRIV
The class given is functional, cell-based.

For assay [5], the target named is T3, Alpha-2A adrenergic receptor. The class given is functional, cell-based. This is another data set of the same source.
In assay [6] the target is T4, Mu-type opioid receptor (Homo sapiens, UniProt P35372). Briefly: biochemical. The class given is functional.
T4 sequence (P35372 whole entry): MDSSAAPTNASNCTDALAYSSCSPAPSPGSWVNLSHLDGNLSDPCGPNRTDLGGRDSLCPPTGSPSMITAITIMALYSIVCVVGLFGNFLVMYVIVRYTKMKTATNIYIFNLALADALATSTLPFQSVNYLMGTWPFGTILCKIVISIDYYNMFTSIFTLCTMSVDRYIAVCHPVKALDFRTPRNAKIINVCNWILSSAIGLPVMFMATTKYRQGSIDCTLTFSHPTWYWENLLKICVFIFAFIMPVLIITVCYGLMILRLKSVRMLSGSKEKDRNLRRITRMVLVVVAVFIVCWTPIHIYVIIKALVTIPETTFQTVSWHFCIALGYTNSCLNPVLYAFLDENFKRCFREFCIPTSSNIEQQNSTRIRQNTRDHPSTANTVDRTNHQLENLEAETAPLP
For assay [7], the target named is Sodium-dependent serotonin transporter (Homo sapiens, UniProt P31645).
Sequence of Sodium-dependent serotonin transporter (P31645 whole entry): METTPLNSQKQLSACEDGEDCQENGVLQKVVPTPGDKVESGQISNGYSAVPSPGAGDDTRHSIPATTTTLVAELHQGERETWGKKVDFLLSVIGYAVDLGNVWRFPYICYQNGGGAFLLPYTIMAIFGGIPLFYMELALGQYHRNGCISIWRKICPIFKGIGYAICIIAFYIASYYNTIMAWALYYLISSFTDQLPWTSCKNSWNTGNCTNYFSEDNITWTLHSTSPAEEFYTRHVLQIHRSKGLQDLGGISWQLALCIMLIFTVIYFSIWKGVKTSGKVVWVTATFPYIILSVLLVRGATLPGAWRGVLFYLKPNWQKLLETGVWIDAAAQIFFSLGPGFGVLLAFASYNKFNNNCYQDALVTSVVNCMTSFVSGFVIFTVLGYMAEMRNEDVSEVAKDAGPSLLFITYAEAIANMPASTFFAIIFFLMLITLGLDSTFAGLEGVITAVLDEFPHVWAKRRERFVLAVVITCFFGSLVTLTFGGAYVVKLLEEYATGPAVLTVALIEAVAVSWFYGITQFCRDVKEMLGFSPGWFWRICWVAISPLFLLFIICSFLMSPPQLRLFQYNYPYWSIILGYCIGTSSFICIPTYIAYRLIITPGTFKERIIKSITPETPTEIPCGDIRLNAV
The target of assay [8] is T4, Mu-type opioid receptor.
The target of another assay is T5, B2 bradykinin receptor (Homo sapiens, UniProt P30411).
T5 sequence (P30411 whole entry): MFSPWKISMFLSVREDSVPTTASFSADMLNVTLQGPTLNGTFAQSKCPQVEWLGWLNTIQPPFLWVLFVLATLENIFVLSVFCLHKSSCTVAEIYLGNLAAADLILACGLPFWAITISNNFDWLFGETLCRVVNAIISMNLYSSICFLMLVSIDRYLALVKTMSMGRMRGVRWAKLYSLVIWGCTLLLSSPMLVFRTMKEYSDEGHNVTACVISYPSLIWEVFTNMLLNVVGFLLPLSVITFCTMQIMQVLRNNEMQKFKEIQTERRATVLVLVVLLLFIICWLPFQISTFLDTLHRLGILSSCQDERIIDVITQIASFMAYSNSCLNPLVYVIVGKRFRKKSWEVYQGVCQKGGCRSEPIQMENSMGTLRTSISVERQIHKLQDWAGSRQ

A further assay has as its target T6, Thromboxane A2 receptor (Homo sapiens, UniProt P21731).
T6 sequence (P21731 whole entry): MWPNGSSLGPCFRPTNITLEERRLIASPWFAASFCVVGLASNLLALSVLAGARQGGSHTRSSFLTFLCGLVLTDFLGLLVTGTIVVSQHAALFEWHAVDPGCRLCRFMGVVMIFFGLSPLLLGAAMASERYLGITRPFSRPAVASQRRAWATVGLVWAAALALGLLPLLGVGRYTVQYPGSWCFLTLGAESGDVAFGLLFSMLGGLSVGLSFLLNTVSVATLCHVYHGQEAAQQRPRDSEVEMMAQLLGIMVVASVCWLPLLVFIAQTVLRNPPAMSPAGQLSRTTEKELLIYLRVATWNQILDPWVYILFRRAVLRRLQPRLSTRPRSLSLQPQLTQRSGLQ
Also: assay procedure not described here.

A word on the AC50: it is the concentration giving half of the maximal activity seen. Lower therefore signals greater potency. In the case of `CCn1c(=O)c2c(nc(/C=C/c3ccc(OC)c(OC)c3)n2C)n(CC)c1=O` [ISTRADEFYLLINE], the AC50 on Progesterone receptor [1] and at Progesterone receptor [2] was more than 30 µM throughout.
With `COc1ccc(C(=O)c2ccccc2)c(O)c1` [OXYBENZONE], the AC50 (in assay [3]; in assay [4]; in assay [5]; at Mu-type opioid receptor [6]) was more than 30 µM throughout.
Turning to `CN(C)CCC(O)(c1ccccc1)c1ccccc1Cl` (stereo not given) [CHLOPHEDIANOL], the AC50 is more than 30 µM in [3]; more than 10 µM on Progesterone receptor [1]; more than 10 µM in assay [7]; more than 30 µM at Mu-type opioid receptor [8]; more than 10 µM in [4]; more than 10 µM at Progesterone receptor [2]. In addition, the concentration at half-maximal activity (AC50) (in [5]; at B2 bradykinin receptor; at Thromboxane A2 receptor) was more than 10 µM each time.
As to `Cc1ccc(O)c([C@H](CCN(C(C)C)C(C)C)c2ccccc2)c1` [TOLTERODINE], the AC50 (in assay [3]; in assay [7]; at Mu-type opioid receptor [8]; in [4]; in assay [5]) was more than 10 µM each time.
Take `COc1ccc(-c2cc(=S)ss2)cc1` [ANETHOLTRITHION]: the AC50 is more than 10 µM in [3]; more than 10 µM in assay [7]; more than 30 µM in [4]; 15 µM at Progesterone receptor [2]; more than 30 µM in assay [5]; more than 30 µM at Mu-type opioid receptor [6]. The half-maximal activity concentration (AC50) on B2 bradykinin receptor is more than 30 µM; at Thromboxane A2 receptor it was 16 µM.
Turning to `C[C@]12C=CC(=O)C=C1CC[C@@H]1[C@@H]2[C@@H](O)C[C@@]2(C)[C@H]1CC[C@]2(O)C(=O)CO` [PREDNISOLONE], the AC50 in assay [3] is more than 30 µM; on Mu-type opioid receptor [8], more than 30 µM; in assay [4], more than 10 µM; in [5], more than 10 µM; at B2 bradykinin receptor, more than 30 µM; at Thromboxane A2 receptor it was more than 30 µM.
For the molecule `CN(C)[C@@H]1C(O)=C(C(=O)NCN2CCCC2)C(=O)[C@@]2(O)C(O)=C3C(=O)c4c(O)cccc4[C@@](C)(O)[C@H]3C[C@@H]12` [ROLITETRACYCLINE], the AC50 in [3] is more than 30 µM; on Progesterone receptor [1], more than 30 µM; in assay [7], more than 10 µM; at Mu-type opioid receptor [8], more than 30 µM; in [4], more than 10 µM; on Progesterone receptor [2], more than 30 µM. Further, the concentration at half-maximal activity (AC50) (in [5]; at B2 bradykinin receptor; at Thromboxane A2 receptor) was more than 10 µM in each case.
The molecule `CC(NCCC(c1ccccc1)c1ccccc1)c1ccccc1` (stereo not given) [FENDILINE] gave an AC50 at Mu-type opioid receptor [8] of 0.78 µM.
In the case of `CC1(C)O[C@@H]2C[C@H]3[C@@H]4CCC5=CC(=O)C=C[C@]5(C)[C@@]4(F)[C@@H](O)C[C@]3(C)[C@]2(C(=O)CO)O1` [TRIAMCINOLONE ACETONIDE], the half-maximal activity concentration (AC50) was more than 30 µM in [3]; more than 30 µM in [4]; 0.02 µM on Progesterone receptor [2]; more than 30 µM in assay [5]; more than 30 µM on Mu-type opioid receptor [6]; more than 30 µM on B2 bradykinin receptor. The molecule also gave a concentration at half-maximal activity (AC50) at Thromboxane A2 receptor of more than 30 µM.
As for `C[C@]12CCC(=O)C=C1C=C[C@@H]1[C@@H]2CC[C@@]2(C)[C@H]1CC[C@@]21CCC(=O)O1` [CANRENONE], the AC50 in assay [3] was more than 30 µM; in assay [7] it was more than 30 µM; in assay [4], more than 30 µM; on Progesterone receptor [2] it was 0.2 µM; in [5], more than 30 µM; on Mu-type opioid receptor [6] it was more than 30 µM. Moreover, the concentration at half-maximal activity (AC50) on B2 bradykinin receptor and at Thromboxane A2 receptor was more than 30 µM in each case.
For `CC(C)(C)NCC(O)COc1ccccc1C#N` (stereo not given) [BUNITROLOL], the AC50 (in assay [3]; in [4]; in [5]; at Mu-type opioid receptor [6]) was more than 30 µM each time.
Consider `C[C@]12CCC(=O)C=C1[C@@H]1C[C@@H]1[C@H]1[C@@H]3[C@@H]4C[C@@H]4[C@@]4(CCC(=O)O4)[C@@]3(C)CC[C@@H]12` [DROSPIRENONE], for which the AC50 (in assay [3]; in assay [7]; in assay [5]; at Mu-type opioid receptor [6]; on B2 bradykinin receptor; at Thromboxane A2 receptor) was more than 30 µM in each case.
`N=C(N)NC(=O)c1nc(Cl)c(N)nc1N` [AMILORIDE]: the AC50 in assay [3] was more than 30 µM; at Progesterone receptor [1], more than 30 µM; at Mu-type opioid receptor [8], more than 10 µM; in [4] it was more than 30 µM; at Progesterone receptor [2], more than 30 µM; in [5], more than 30 µM. Also, the AC50 on Mu-type opioid receptor [6] is 4 µM; on B2 bradykinin receptor, more than 30 µM; on Thromboxane A2 receptor, more than 30 µM.
`COc1cccc2c1C(=O)c1c(O)c3c(c(O)c1C2=O)C[C@@](O)(C(=O)CO)C[C@@H]3O[C@H]1C[C@H](N)[C@H](O)[C@H](C)O1` [DOXORUBICIN]: the concentration at half-maximal activity (AC50) was more than 30 µM in assay [3]; more than 30 µM at Progesterone receptor [1]; more than 30 µM at Mu-type opioid receptor [8]; more than 10 µM in assay [4]; more than 30 µM on Progesterone receptor [2]; 12 µM in [5]. The half-maximal activity concentration (AC50) at B2 bradykinin receptor was more than 30 µM.
As for `CCC(=O)c1ccc2c(c1)N(CC(C)N(C)C)c1ccccc1S2` (stereo not given) [PROPIOMAZINE], the AC50 was more than 30 µM in [3]; more than 30 µM on Progesterone receptor [1]; more than 10 µM in assay [7]; 14 µM on Mu-type opioid receptor [8]; more than 10 µM in assay [4]; more than 30 µM at Progesterone receptor [2]. The AC50 (in [5]; at B2 bradykinin receptor; on Thromboxane A2 receptor) was more than 10 µM in each case.
With `Cc1cn(-c2cc(NC(=O)c3ccc(C)c(Nc4nccc(-c5cnccn5)n4)c3)cc(C(F)(F)F)c2)cn1` [RADOTINIB], the half-maximal activity concentration (AC50) at Progesterone receptor [2] is more than 30 µM.
